According to patent publication US7989446B2, “4-amino 5-cyanopyrimidine derivatives” (Otsuka Pharmaceutical Co., Ltd., priority 2004, dated 2011):

How the values were obtained:
[1] = molecular target: T1, adenosine A2a receptor (Human) (Homo sapiens, UniProt P29274); assay: c-AMP generating action in cell expressing adenosine A2a receptor; format: cell-based; conditions: HEK293 cell expressing human A2a; 100% = c-AMP caused by 1 μM CGS-21680; read-out: A2a Agonistic Action (EC50)
T1 construct: host or cells: HEK293
T1 sequence (P29274 whole entry): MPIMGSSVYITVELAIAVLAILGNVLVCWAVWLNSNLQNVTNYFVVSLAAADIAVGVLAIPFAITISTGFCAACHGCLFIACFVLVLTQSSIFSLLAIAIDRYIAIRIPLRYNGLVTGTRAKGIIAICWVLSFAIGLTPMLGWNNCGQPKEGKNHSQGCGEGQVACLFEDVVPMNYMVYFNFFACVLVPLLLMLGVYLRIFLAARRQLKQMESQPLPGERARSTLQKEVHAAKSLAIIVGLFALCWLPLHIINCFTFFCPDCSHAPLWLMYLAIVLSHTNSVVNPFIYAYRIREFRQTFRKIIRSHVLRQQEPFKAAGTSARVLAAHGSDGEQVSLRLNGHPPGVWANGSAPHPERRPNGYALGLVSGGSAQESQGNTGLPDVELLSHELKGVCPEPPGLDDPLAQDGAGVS
In short: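 HEK293 cells with human A2a receptor were preincubated 30 min at 37 °C with 0.1 mM IBMX and 2 U/mL adenosine deaminase. Compound was then added for 30 min and cAMP read by EIA. EC50 = concentration giving 50% of the cAMP produced by 1 μM CGS-21680.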

A1 receptor = molecular target: T2, A1 receptor (Rattus norvegicus, UniProt P25099); assay: Adenosine A1 agonistic action ([35S]GTPγS binding, rat cerebral cortex cell membrane); format: biochemical, male Wistar rats; conditions: percentage to 100% of CPA 1 μM
T2 construct: cerebral cortex of male Wistar rats (Charles River Japan, Inc) was extirpated; from tissue; host or cells: cerebral cortex of male Wistar rats, cell membrane preparation
T2 sequence (P25099 1-326): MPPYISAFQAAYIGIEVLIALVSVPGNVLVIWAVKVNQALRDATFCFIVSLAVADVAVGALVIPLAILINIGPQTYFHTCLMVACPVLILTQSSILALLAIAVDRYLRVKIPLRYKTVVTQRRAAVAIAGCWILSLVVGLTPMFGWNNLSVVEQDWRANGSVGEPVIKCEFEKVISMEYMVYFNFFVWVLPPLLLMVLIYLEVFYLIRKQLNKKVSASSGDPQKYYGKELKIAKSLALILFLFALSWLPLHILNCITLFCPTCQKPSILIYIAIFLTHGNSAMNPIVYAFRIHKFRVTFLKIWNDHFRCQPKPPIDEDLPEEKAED
Experimental: (2) Adenosine A1 Agonistic Action
The test was carried out as mentioned below with reference to the method disclosed in the literature (Shryock J. C. et al., Molecular Pharmacology, (1998) 53, 886-893; Ito H. et al., European Journal of Pharmacology, (1999) 365, 309-315). That is, cerebral cortex of male Wistar rats (Charles River Japan, Inc) was extirpated, thereto Tris buffer (50 mM Tris-HCl: pH 7.4) was added, it was homogenized, and then centrifuged (1000×g, 10 min). The supernatant was taken, and centrifuged (20,000×g, 20 min). After removing off the supernatant, the precipitate was suspended in Tris buffer, and recentrifuged (20,000×g, 20 min). After removing off the supernatant, the precipitate was suspended in Tris buffer including 2 units/mL ADA (adenosine deaminase) and reserved at −80° C. until used as a liquid preparation of cell membrane for the following tests.
The above liquid preparation of cell membrane in an amount corresponding to 10 μg of cell membrane was added to Tris-buffer comprising 5 mM of MgCl2, 1 mM of EDTA, 1 mM of dithiothreitol, 100 mM of NaCl, 0.01 mM of GDP (guanosine diphosphate), 5 mg/mL of BSA and 2 units/mL of ADA and the mixture was incubated at 25° C. for 30 minutes. Additionally, [^35S]GTPγS (Guanosine 5′-[γ-thio]triphosphate) (the final concentration: 0.4 nM) and the test compound of the given concentration (which was calculated based on the final concentration of the test compound) were added to the mixture and the resulting mixture was incubated at 25° C. for 45 minutes. The reaction mixture was filtrated through a glass fiber filter (unifilter-96 GF/B, Perkin Elmer Life Sciences) to quench reaction. The filter was washed 5 times with ice-cooled Tris-buffer including 5 mM MgCl2. The radioactivity of the filter was measured with Top count NXT(Perkin Elmer Life Sciences). The nonspecific binding was shown as the binding activity of [^35S]GTPγS in the presence of 0.01 mM GTPγS.
The activity (%, A1 agonistic action) of each test compound was calculated on the basis of the test result ([^35S]GTPγS binding activity) derived with 1 μM of CPA (N^6-Cyclopentyladenosine, Sigma, code C-8031) in control which was counted as 100%.

[2] = system: Intraocular Pressure in Rabbit; assay: Measuring test for intraocular pressure in rabbit; format: in vivo, Female New Zealand white rabbits; conditions: mean±standard error
In short: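 Female New Zealand white rabbits received 50 μL eye drops of compound in 10 mM phosphate buffer pH 7.5 (suspension if insoluble) in one eye, vehicle as control. IOP measured by pneumatonometer under topical oxybuprocaine before and 0.5–6 h after dosing; reported as ΔIOP from pre-instillation, mmHg, mean±SE.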

[3] = 0.01% ophthalmic solution, test group, 0.5 hr
[4] = 0.01% ophthalmic solution, test group, 1 hr
[5] = 0.01% ophthalmic solution, test group, 2 hr
[6] = 0.01% ophthalmic solution, test group, 3 hr
[7] = 0.01% ophthalmic solution, test group, 4 hr
[8] = 0.01% ophthalmic solution, test group, 6 hr

CC(=O)Nc1ccc(-c2nc(SCc3cccc(CCC(=O)N4CCN(CCN(C(C)C)C(C)C)CC4)n3)nc(N)c2C#N)cc1.Cl [Example 76, N-{4-[6-amino-5-cyano-2-(6-{3-[4-(2-diisopropylaminoethyl)piperazin-1-yl]-3-oxopropyl}pyridin-2-ylmethylsulfanyl)pyrimidin-4-yl]phenyl}acetamide hydrochloride]
EC50 [1]: 7.6 nM
A1 Agonistic Action (%) (A1 receptor; test compound 10 nM): 0%
A1 Agonistic Action (%) (A1 receptor; test compound 100 nM): 14%
A1 Agonistic Action (%) (A1 receptor; test compound 1 μM): 46%
ΔIOP (mmHg) ([2]; 0.01% ophthalmic solution, rabbit, instillation, 0.5 hr after instillation, difference from pre-instillation): −3.7 ± 0.5 mmHg
ΔIOP (mmHg) ([2]; 0.01% ophthalmic solution, rabbit, instillation, 1 hr after instillation, difference from pre-instillation): −6.0 ± 0.8 mmHg
ΔIOP (mmHg) ([2]; 0.01% ophthalmic solution, rabbit, instillation, 2 hr after instillation, difference from pre-instillation): −5.7 ± 0.1 mmHg
ΔIOP (mmHg) ([2]; 0.01% ophthalmic solution, rabbit, instillation, 3 hr after instillation, difference from pre-instillation): −6.1 ± 0.3 mmHg
ΔIOP (mmHg) ([2]; 0.01% ophthalmic solution, rabbit, instillation, 4 hr after instillation, difference from pre-instillation): −5.2 ± 0.4 mmHg
ΔIOP (mmHg) ([2]; 0.01% ophthalmic solution, rabbit, instillation, 6 hr after instillation, difference from pre-instillation): −3.6 ± 0.7 mmHg

CC(=O)Nc1ccc(-c2nc(SCc3cccc(CCC(=O)N4CCN(C)CC4)n3)nc(N)c2C#N)cc1 [Example 46, N-[4-(6-amino-5-cyano-2-{6-[3-(4-methylpiperazin-1-yl)-3-oxopropyl]pyridin-2-ylmethylsulfanyl}pyrimidin-4-yl)phenyl]-acetamide]
EC50 [1]: 7.4 nM
A1 Agonistic Action (%) (A1 receptor; test compound 10 nM): 4%
A1 Agonistic Action (%) (A1 receptor; test compound 100 nM): 26%
A1 Agonistic Action (%) (A1 receptor; test compound 1 μM): 45%
ΔIOP (mmHg) [2, 3]: −0.6 ± 0.6 mmHg
ΔIOP (mmHg) [2, 4]: −4.4 ± 0.8 mmHg
ΔIOP (mmHg) [2, 5]: −4.9 ± 0.6 mmHg
ΔIOP (mmHg) [2, 6]: −3.8 ± 0.7 mmHg
ΔIOP (mmHg) [2, 7]: −2.9 ± 0.5 mmHg
ΔIOP (mmHg) [2, 8]: −0.5 ± 0.6 mmHg

CCN(CC)CCN1CCN(C(=O)CCc2cccc(CSc3nc(N)c(C#N)c(-c4ccc(NC(C)=O)cc4)n3)n2)CC1.Cl [Example 75, N-{4-[6-amino-5-cyano-2-(6-{3-[4-(2-diethylaminoethyl)piperazin-1-yl]-3-oxopropyl}pyridin-2-ylmethylsulfanyl)pyrimidin-4-yl]phenyl}acetamide hydrochloride]
EC50 [1]: 3 nM
A1 Agonistic Action (%) (A1 receptor; test compound 10 nM): 3%
A1 Agonistic Action (%) (A1 receptor; test compound 100 nM): 22%
A1 Agonistic Action (%) (A1 receptor; test compound 1 μM): 50%
ΔIOP (mmHg) [2, 3]: −0.8 ± 0.4 mmHg
ΔIOP (mmHg) [2, 4]: −5.1 ± 0.5 mmHg
ΔIOP (mmHg) [2, 5]: −5.3 ± 0.9 mmHg
ΔIOP (mmHg) [2, 6]: −4.0 ± 0.9 mmHg
ΔIOP (mmHg) [2, 7]: −4.3 ± 0.9 mmHg
ΔIOP (mmHg) [2, 8]: −1.3 ± 0.4 mmHg

CC(=O)Nc1ccc(-c2nc(SCc3cccc(CCC(=O)N(C)CCN(C)C)n3)nc(N)c2C#N)cc1.Cl [Example 62, 3-{6-[4-(4-acetylaminophenyl)-6-amino-5-cyanopyrimidin-2-ylsulfanylmethyl]pyridin-2-yl}-N-(2-dimethylaminoethyl)-N-methylpropionamide hydrochloride]
EC50 [1]: 5.1 nM
A1 Agonistic Action (%) (A1 receptor; test compound 10 nM): 8%
A1 Agonistic Action (%) (A1 receptor; test compound 100 nM): 30%
A1 Agonistic Action (%) (A1 receptor; test compound 1 μM): 39%
ΔIOP (mmHg) ([2]; 0.03% ophthalmic solution, rabbit, instillation, 0.5 hr after instillation, difference from pre-instillation): −1.2 ± 0.7 mmHg
ΔIOP (mmHg) ([2]; 0.03% ophthalmic solution, rabbit, instillation, 1 hr after instillation, difference from pre-instillation): −4.7 ± 0.5 mmHg
ΔIOP (mmHg) ([2]; 0.03% ophthalmic solution, rabbit, instillation, 2 hr after instillation, difference from pre-instillation): −5.1 ± 0.3 mmHg
ΔIOP (mmHg) ([2]; 0.03% ophthalmic solution, rabbit, instillation, 3 hr after instillation, difference from pre-instillation): −4.9 ± 0.3 mmHg
ΔIOP (mmHg) ([2]; 0.03% ophthalmic solution, rabbit, instillation, 4 hr after instillation, difference from pre-instillation): −3.6 ± 0.3 mmHg
ΔIOP (mmHg) ([2]; 0.03% ophthalmic solution, rabbit, instillation, 6 hr after instillation, difference from pre-instillation): −1.0 ± 0.6 mmHg
